Test results taken from ChEMBL document CHEMBL3885881, “DrugMatrix”.

Species: Rattus norvegicus
Assay: DrugMatrix - Regimen: Daily Repeat
Format: toxicity, organism-based, Sprague-Dawley
Set-up: regimen Daily Repeat, gender Male, age 6-8 weeks
Conditions: in vivo, po, route oral GAVAGE, dose level Low; for ABSOLUTE BASOPHIL / ABSOLUTE EOSINOPHIL / ABSOLUTE LYMPHOCYTE / ABSOLUTE MONOCYTE / ABSOLUTE SEGMENTED NEUTROPHIL / BASOPHIL / EOSINOPHIL / ERYTHROCYTE COUNT / HEMATOCRIT / HEMOGLOBIN / LEUKOCYTE COUNT / LYMPHOCYTE / MEAN CORPUSCULAR HEMOGLOBIN / MEAN CORPUSCULAR HEMOGLOBIN CONCENTRATION / MEAN CORPUSCULAR VOLUME / MONOCYTE / NEUTROPHIL / NUCLEATED RED BLOOD CELLS / PLATELET COUNT: tissue Blood; for ALANINE AMINOTRANSFERASE / ALBUMIN / ALKALINE PHOSPHATASE / ASPARTATE AMINOTRANSFERASE / BLOOD UREA NITROGEN / CARBON DIOXIDE / CHLORIDE / CHOLESTEROL / CREATINE PHOSPHOKINASE / CREATININE / GLUCOSE / LACTATE DEHYDROGENASE / LIPASE / PHOSPHORUS / POTASSIUM / SODIUM / TOTAL BILIRUBIN / TOTAL PROTEIN / URIC ACID: tissue Plasma
[1] = 20 mg/kg, 72 h, time 3 day, vehicle 100 % WATER
[2] = 20 mg/kg, 120 h, time 5 day, vehicle 100 % WATER
[3] = […], 72 h, dose 1.7 mg/Kg, time 3 day
[4] = […], 120 h, dose 1.7 mg/Kg, time 5 day

COCCCOc1ccnc(C[S+]([O-])c2nc3ccccc3[nH]2)c1C (stereo unspecified) [RABEPRAZOLE]
ABSOLUTE BASOPHIL [1]: 0 CELLS/uL
ABSOLUTE EOSINOPHIL [1]: 317.67 CELLS/uL
ABSOLUTE LYMPHOCYTE [1]: 11906.67 CELLS/uL
ABSOLUTE MONOCYTE [1]: 267.33 CELLS/uL
ABSOLUTE SEGMENTED NEUTROPHIL [1]: 875 CELLS/uL
BASOPHIL [1]: 0%
EOSINOPHIL [1]: 2.33%
ERYTHROCYTE COUNT [1]: 5.67 x10E6/uL
HEMATOCRIT [1]: 36.1%
HEMOGLOBIN [1]: 13.63 G/DL
LEUKOCYTE COUNT [1]: 13.37 x10E3/uL
LYMPHOCYTE [1]: 89%
MEAN CORPUSCULAR HEMOGLOBIN [1]: 24.07 pg
MEAN CORPUSCULAR HEMOGLOBIN CONCENTRATION [1]: 37.8 G/DL
MEAN CORPUSCULAR VOLUME [1]: 63.8 fL
MONOCYTE [1]: 2%
NEUTROPHIL [1]: 6.67%
NUCLEATED RED BLOOD CELLS [1]: 0 /100WBC
PLATELET COUNT [1]: 1283.67 x10E3/uL
ALANINE AMINOTRANSFERASE [1]: 42 u/L
ALBUMIN [1]: 4.3 G/DL
ALKALINE PHOSPHATASE [1]: 427.67 u/L
ASPARTATE AMINOTRANSFERASE [1]: 83.33 u/L
BLOOD UREA NITROGEN [1]: 14.33 mg/dL
CARBON DIOXIDE [1]: 27 mmol/L
CHLORIDE [1]: 105.67 MEQ/L
CHOLESTEROL [1]: 82.33 mg/dL
CREATINE PHOSPHOKINASE [1]: 491.33 u/L
CREATININE [1]: 0.16 mg/dL
GLUCOSE [1]: 161.67 mg/dL
LACTATE DEHYDROGENASE [1]: 92.33 u/L
LIPASE [1]: 9 u/L
PHOSPHORUS [1]: 14.1 mg/dL
POTASSIUM [1]: 6.68 MEQ/L
SODIUM [1]: 146.6 MEQ/L
TOTAL BILIRUBIN [1]: 0.2 mg/dL
TOTAL PROTEIN [1]: 5.87 G/DL
URIC ACID [1]: 2.2 mg/dL
ABSOLUTE BASOPHIL [2]: 0 CELLS/uL
ABSOLUTE EOSINOPHIL [2]: 38.67 CELLS/uL
ABSOLUTE LYMPHOCYTE [2]: 10652 CELLS/uL
ABSOLUTE MONOCYTE [2]: 120.67 CELLS/uL
ABSOLUTE SEGMENTED NEUTROPHIL [2]: 788.67 CELLS/uL
BASOPHIL [2]: 0%
EOSINOPHIL [2]: 0.33%
ERYTHROCYTE COUNT [2]: 5.6 x10E6/uL
HEMATOCRIT [2]: 36.27%
HEMOGLOBIN [2]: 13.6 G/DL
LEUKOCYTE COUNT [2]: 11.6 x10E3/uL
LYMPHOCYTE [2]: 91.67%
MEAN CORPUSCULAR HEMOGLOBIN [2]: 24.27 pg
MEAN CORPUSCULAR HEMOGLOBIN CONCENTRATION [2]: 37.5 G/DL
MEAN CORPUSCULAR VOLUME [2]: 64.73 fL
MONOCYTE [2]: 1%
NEUTROPHIL [2]: 7%
NUCLEATED RED BLOOD CELLS [2]: 0 /100WBC
PLATELET COUNT [2]: 1417.67 x10E3/uL
ALANINE AMINOTRANSFERASE [2]: 49.33 u/L
ALBUMIN [2]: 4.17 G/DL
ALKALINE PHOSPHATASE [2]: 321 u/L
ASPARTATE AMINOTRANSFERASE [2]: 105 u/L
BLOOD UREA NITROGEN [2]: 19 mg/dL
CARBON DIOXIDE [2]: 23 mmol/L
CHLORIDE [2]: 110 MEQ/L
CHOLESTEROL [2]: 67 mg/dL
CREATINE PHOSPHOKINASE [2]: 1368.67 u/L
CREATININE [2]: 0.21 mg/dL
GLUCOSE [2]: 203 mg/dL
LACTATE DEHYDROGENASE [2]: 225 u/L
LIPASE [2]: 8.67 u/L
PHOSPHORUS [2]: 13.93 mg/dL
POTASSIUM [2]: 6.05 MEQ/L
SODIUM [2]: 148.17 MEQ/L
TOTAL BILIRUBIN [2]: 0.2 mg/dL
URIC ACID [2]: 1.77 mg/dL

C#C[C@]1(OC(C)=O)CC[C@H]2[C@@H]3CCC4=CC(=O)CC[C@@H]4[C@H]3CC[C@@]21C [NORETHINDRONE ACETATE]
ABSOLUTE BASOPHIL [3]: 0 CELLS/uL
ABSOLUTE EOSINOPHIL [3]: 0 CELLS/uL
ABSOLUTE LYMPHOCYTE [3]: 14146.67 CELLS/uL
ABSOLUTE MONOCYTE [3]: 167 CELLS/uL
ABSOLUTE SEGMENTED NEUTROPHIL [3]: 1486.33 CELLS/uL
BASOPHIL [3]: 0%
EOSINOPHIL [3]: 0%
ERYTHROCYTE COUNT [3]: 5.62 x10E6/uL
HEMATOCRIT [3]: 33.97%
HEMOGLOBIN [3]: 13.3 G/DL
LEUKOCYTE COUNT [3]: 15.8 x10E3/uL
LYMPHOCYTE [3]: 89.33%
MEAN CORPUSCULAR HEMOGLOBIN [3]: 23.7 pg
MEAN CORPUSCULAR HEMOGLOBIN CONCENTRATION [3]: 39.17 G/DL
MEAN CORPUSCULAR VOLUME [3]: 60.5 fL
MONOCYTE [3]: 1%
NEUTROPHIL [3]: 9.67%
NUCLEATED RED BLOOD CELLS [3]: 0 /100WBC
PLATELET COUNT [3]: 1255.67 x10E3/uL
ALANINE AMINOTRANSFERASE [3]: 61.67 u/L
ALBUMIN [3]: 4.07 G/DL
ALKALINE PHOSPHATASE [3]: 473.33 u/L
ASPARTATE AMINOTRANSFERASE [3]: 85 u/L
BLOOD UREA NITROGEN [3]: 14.33 mg/dL
CARBON DIOXIDE [3]: 26.67 mmol/L
CHLORIDE [3]: 99.67 MEQ/L
CHOLESTEROL [3]: 62.33 mg/dL
CREATINE PHOSPHOKINASE [3]: 351 u/L
CREATININE [3]: 0.17 mg/dL
GLUCOSE [3]: 158.33 mg/dL
LACTATE DEHYDROGENASE [3]: 371.33 u/L
LIPASE [3]: 10.33 u/L
PHOSPHORUS [3]: 12.87 mg/dL
POTASSIUM [3]: 6.54 MEQ/L
SODIUM [3]: 143.43 MEQ/L
TOTAL BILIRUBIN [3]: 0.17 mg/dL
TOTAL PROTEIN [3]: 5.73 G/DL
URIC ACID [3]: 1.37 mg/dL
ABSOLUTE BASOPHIL [4]: 0 CELLS/uL
ABSOLUTE EOSINOPHIL [4]: 62 CELLS/uL
ABSOLUTE LYMPHOCYTE [4]: 13760.33 CELLS/uL
ABSOLUTE MONOCYTE [4]: 100.67 CELLS/uL
ABSOLUTE SEGMENTED NEUTROPHIL [4]: 1110.33 CELLS/uL
BASOPHIL [4]: 0%
EOSINOPHIL [4]: 0.33%
ERYTHROCYTE COUNT [4]: 5.76 x10E6/uL
HEMATOCRIT [4]: 36.33%
HEMOGLOBIN [4]: 14.4 G/DL
LEUKOCYTE COUNT [4]: 15.03 x10E3/uL
LYMPHOCYTE [4]: 91.67%
MEAN CORPUSCULAR HEMOGLOBIN [4]: 25.07 pg
MEAN CORPUSCULAR HEMOGLOBIN CONCENTRATION [4]: 39.67 G/DL
MEAN CORPUSCULAR VOLUME [4]: 63.17 fL
MONOCYTE [4]: 0.67%
NEUTROPHIL [4]: 7.33%
NUCLEATED RED BLOOD CELLS [4]: 0 /100WBC
PLATELET COUNT [4]: 1087.33 x10E3/uL
ALANINE AMINOTRANSFERASE [4]: 65.33 u/L
ALBUMIN [4]: 4.13 G/DL
ALKALINE PHOSPHATASE [4]: 463.33 u/L
ASPARTATE AMINOTRANSFERASE [4]: 99 u/L
BLOOD UREA NITROGEN [4]: 16 mg/dL
CARBON DIOXIDE [4]: 28.67 mmol/L
CHLORIDE [4]: 98.67 MEQ/L
CHOLESTEROL [4]: 59.33 mg/dL
CREATINE PHOSPHOKINASE [4]: 362.33 u/L
CREATININE [4]: 0.2 mg/dL
GLUCOSE [4]: 142 mg/dL
LACTATE DEHYDROGENASE [4]: 548.33 u/L
LIPASE [4]: 10.33 u/L
PHOSPHORUS [4]: 12.73 mg/dL
POTASSIUM [4]: 6.67 MEQ/L
SODIUM [4]: 145.33 MEQ/L
TOTAL BILIRUBIN [4]: 0.23 mg/dL
TOTAL PROTEIN [4]: 5.93 G/DL
URIC ACID [4]: 1.63 mg/dL
